According to ChEMBL document CHEMBL1154426, “In vitro susceptibilities of Mycoplasma putrefaciens field isolates” (2007):
Values after ≈ are worked out from the molar mass of the structure shown.

Assays:
Format in all cases: functional
Mycoplasma putrefaciens [1] = test: Antimicrobial activity against Mycoplasma putrefaciens French isolates after 24 hrs by twofold serial dilution method
Mycoplasma putrefaciens [2] = test: Antimicrobial activity against Mycoplasma putrefaciens Jordanian isolates after 24 hrs by twofold serial dilution method
Mycoplasma putrefaciens [3] = test: Antimicrobial activity against Mycoplasma putrefaciens KS1 after 24 hrs by twofold serial dilution method

O=C(N[C@H](CO)[C@H](O)c1ccc([N+](=O)[O-])cc1)C(Cl)Cl [CHLORAMPHENICOL]
MIC50 (Mycoplasma putrefaciens [1]): 4 µg/mL (≈ 12.4 µM)
MIC90 (Mycoplasma putrefaciens [1]): 4 µg/mL (≈ 12.4 µM)
MIC50 (Mycoplasma putrefaciens [2]): 2 µg/mL (≈ 6.19 µM)
MIC90 (Mycoplasma putrefaciens [2]): 4 µg/mL (≈ 12.4 µM)
MIC (Mycoplasma putrefaciens [3]; KS1, 24 h): 4 µg/mL (≈ 12.4 µM)

CN(C)[C@@H]1C(O)=C(C(N)=O)C(=O)[C@@]2(O)C(O)=C3C(=O)c4c(O)ccc(Cl)c4[C@@](C)(O)[C@H]3C[C@@H]12 [CHLORTETRACYCLINE]
MIC50 (Mycoplasma putrefaciens [1]): 8 µg/mL (≈ 16.7 µM)
MIC90 (Mycoplasma putrefaciens [1]): 16 µg/mL (≈ 33.4 µM)
MIC50 (Mycoplasma putrefaciens [2]): 4 µg/mL (≈ 8.35 µM)
MIC90 (Mycoplasma putrefaciens [2]): 4 µg/mL (≈ 8.35 µM)
MIC (Mycoplasma putrefaciens [3]; KS1, 24 h): 4 µg/mL (≈ 8.35 µM)

O=C(O)c1cn(C2CC2)c2cc(N3CCNCC3)c(F)cc2c1=O [CIPROFLOXACIN]
MIC50 (Mycoplasma putrefaciens [1]): 0.25 µg/mL (≈ 0.754 µM)
MIC90 (Mycoplasma putrefaciens [1]): 0.5 µg/mL (≈ 1.51 µM)
MIC50 (Mycoplasma putrefaciens [2]): 0.25 µg/mL (≈ 0.754 µM)
MIC90 (Mycoplasma putrefaciens [2]): 0.25 µg/mL (≈ 0.754 µM)
MIC (Mycoplasma putrefaciens [3]; KS1, 24 h): 0.25 µg/mL (≈ 0.754 µM)

C[C@H]1c2cccc(O)c2C(=O)C2=C(O)[C@]3(O)C(=O)C(C(N)=O)=C(O)[C@@H](N(C)C)[C@@H]3[C@@H](O)[C@@H]21.O [DOXYCYCLINE]
MIC50 (Mycoplasma putrefaciens [1]): 0.25 µg/mL
MIC90 (Mycoplasma putrefaciens [1]): 2 µg/mL
MIC50 (Mycoplasma putrefaciens [2]): 0.125 µg/mL
MIC90 (Mycoplasma putrefaciens [2]): 0.25 µg/mL
MIC (Mycoplasma putrefaciens [3]; KS1, 24 h): 0.03 µg/mL

CCN1CCN(c2cc3c(cc2F)c(=O)c(C(=O)O)cn3C2CC2)CC1 [ENROFLOXACIN]
MIC50 (Mycoplasma putrefaciens [1]): 0.125 µg/mL (≈ 0.348 µM)
MIC90 (Mycoplasma putrefaciens [1]): 0.25 µg/mL (≈ 0.696 µM)
MIC50 (Mycoplasma putrefaciens [2]): 0.125 µg/mL (≈ 0.348 µM)
MIC90 (Mycoplasma putrefaciens [2]): 0.125 µg/mL (≈ 0.348 µM)
MIC (Mycoplasma putrefaciens [3]; KS1, 24 h): 0.125 µg/mL (≈ 0.348 µM)

CC[C@H]1OC(=O)[C@H](C)[C@@H](O[C@H]2C[C@@](C)(OC)[C@@H](O)[C@H](C)O2)[C@H](C)[C@@H](O[C@@H]2O[C@H](C)C[C@H](N(C)C)[C@H]2O)[C@](C)(O)C[C@@H](C)C(=O)[C@H](C)[C@@H](O)[C@]1(C)O [ERYTHROMYCIN]
MIC50 (Mycoplasma putrefaciens [1]): 0.03 µg/mL (≈ 0.0409 µM)
MIC90 (Mycoplasma putrefaciens [1]): 0.125 µg/mL (≈ 0.17 µM)
MIC50 (Mycoplasma putrefaciens [2]): 0.03 µg/mL (≈ 0.0409 µM)
MIC90 (Mycoplasma putrefaciens [2]): 0.03 µg/mL (≈ 0.0409 µM)
MIC (Mycoplasma putrefaciens [3]; KS1, 24 h): 0.03 µg/mL (≈ 0.0409 µM)

CCC[C@@H]1C[C@@H](C(=O)N[C@@H]([C@H]2O[C@H](SC)[C@H](O)[C@@H](O)[C@H]2O)[C@@H](C)O)N(C)C1 [LINCOMYCIN]
MIC50 (Mycoplasma putrefaciens [1]): 1 µg/mL (≈ 2.46 µM)
MIC90 (Mycoplasma putrefaciens [1]): 2 µg/mL (≈ 4.92 µM)
MIC50 (Mycoplasma putrefaciens [2]): 0.5 µg/mL (≈ 1.23 µM)
MIC90 (Mycoplasma putrefaciens [2]): 1 µg/mL (≈ 2.46 µM)
MIC (Mycoplasma putrefaciens [3]; KS1, 24 h): 1 µg/mL (≈ 2.46 µM)

CCn1cc(C(=O)O)c(=O)c2ccc(C)nc21 [NALIDIXIC ACID]
MIC50 (Mycoplasma putrefaciens [1]): > 256 µg/mL
MIC90 (Mycoplasma putrefaciens [1]): > 256 µg/mL
MIC50 (Mycoplasma putrefaciens [2]): > 256 µg/mL
MIC90 (Mycoplasma putrefaciens [2]): > 256 µg/mL
MIC (Mycoplasma putrefaciens [3]; KS1, 24 h): 512 µg/mL (≈ 2200 µM)

CCn1cc(C(=O)O)c(=O)c2cc(F)c(N3CCNCC3)cc21 [NORFLOXACIN]
MIC50 (Mycoplasma putrefaciens [1]): 2 µg/mL (≈ 6.26 µM)
MIC90 (Mycoplasma putrefaciens [1]): 4 µg/mL (≈ 12.5 µM)
MIC50 (Mycoplasma putrefaciens [2]): 2 µg/mL (≈ 6.26 µM)
MIC90 (Mycoplasma putrefaciens [2]): 2 µg/mL (≈ 6.26 µM)
MIC (Mycoplasma putrefaciens [3]; KS1, 24 h): 2 µg/mL (≈ 6.26 µM)

CN(C)[C@@H]1C(O)=C(C(N)=O)C(=O)[C@@]2(O)C(O)=C3C(=O)c4c(O)cccc4[C@@](C)(O)[C@H]3[C@H](O)[C@@H]12 [OXYTETRACYCLINE]
MIC50 (Mycoplasma putrefaciens [1]): 1 µg/mL (≈ 2.17 µM)
MIC90 (Mycoplasma putrefaciens [1]): 4 µg/mL (≈ 8.69 µM)
MIC50 (Mycoplasma putrefaciens [2]): 0.5 µg/mL (≈ 1.09 µM)
MIC90 (Mycoplasma putrefaciens [2]): 0.5 µg/mL (≈ 1.09 µM)
MIC (Mycoplasma putrefaciens [3]; KS1, 24 h): 0.5 µg/mL (≈ 1.09 µM)

CN[C@@H]1[C@H](O)[C@H](NC)[C@H]2O[C@@]3(O)C(=O)C[C@@H](C)O[C@H]3O[C@@H]2[C@H]1O [SPECTINOMYCIN]
MIC50 (Mycoplasma putrefaciens [1]): 16 µg/mL (≈ 48.1 µM)
MIC90 (Mycoplasma putrefaciens [1]): 16 µg/mL (≈ 48.1 µM)
MIC50 (Mycoplasma putrefaciens [2]): 16 µg/mL (≈ 48.1 µM)
MIC90 (Mycoplasma putrefaciens [2]): 32 µg/mL (≈ 96.3 µM)
MIC (Mycoplasma putrefaciens [3]; KS1, 24 h): 32 µg/mL (≈ 96.3 µM)

CN[C@@H]1[C@H](O[C@H]2[C@H](O[C@H]3[C@H](O)[C@@H](O)[C@H](N=C(N)N)[C@@H](O)[C@@H]3N=C(N)N)O[C@@H](C)[C@]2(O)C=O)O[C@@H](CO)[C@H](O)[C@H]1O [STREPTOMYCIN]
MIC50 (Mycoplasma putrefaciens [1]): 32 µg/mL (≈ 55 µM)
MIC90 (Mycoplasma putrefaciens [1]): 64 µg/mL (≈ 110 µM)
MIC50 (Mycoplasma putrefaciens [2]): 32 µg/mL (≈ 55 µM)
MIC90 (Mycoplasma putrefaciens [2]): 32 µg/mL (≈ 55 µM)
MIC (Mycoplasma putrefaciens [3]; KS1, 24 h): 64 µg/mL (≈ 110 µM)

CC[C@H]1OC(=O)C[C@@H](O)[C@H](C)[C@@H](O[C@@H]2O[C@H](C)[C@@H](O[C@H]3C[C@@](C)(O)[C@@H](O)[C@H](C)O3)[C@H](N(C)C)[C@H]2O)[C@@H](CC=O)C[C@@H](C)C(=O)/C=C/C(C)=C/[C@@H]1CO[C@@H]1O[C@H](C)[C@@H](O)[C@@H](OC)[C@H]1OC [TYLOSIN]
MIC50 (Mycoplasma putrefaciens [1]): 0.03 µg/mL (≈ 0.0327 µM)
MIC90 (Mycoplasma putrefaciens [1]): 0.06 µg/mL (≈ 0.0655 µM)
MIC50 (Mycoplasma putrefaciens [2]): 0.015 µg/mL (≈ 0.0164 µM)
MIC90 (Mycoplasma putrefaciens [2]): 0.015 µg/mL (≈ 0.0164 µM)
MIC (Mycoplasma putrefaciens [3]; KS1, 24 h): 0.06 µg/mL (≈ 0.0655 µM)

GENTAMICIN
MIC50 (Mycoplasma putrefaciens [1]): 64 µg/mL
MIC90 (Mycoplasma putrefaciens [1]): 64 µg/mL
MIC50 (Mycoplasma putrefaciens [2]): 32 µg/mL
MIC90 (Mycoplasma putrefaciens [2]): 32 µg/mL
MIC (Mycoplasma putrefaciens [3]): 64 µg/mL

SPIRAMYCIN
MIC50 (Mycoplasma putrefaciens [1]): 0.25 µg/mL
MIC90 (Mycoplasma putrefaciens [1]): 0.5 µg/mL
MIC50 (Mycoplasma putrefaciens [2]): 0.125 µg/mL
MIC90 (Mycoplasma putrefaciens [2]): 0.25 µg/mL
MIC (Mycoplasma putrefaciens [3]): 0.25 µg/mL
